The assay concerns Bovine cardiac myofibrils. Put plainly: Dose-dependent myofibril ATPase modulation (calcium-buffered, pyruvate kinase and lactate dehydrogenase-coupled ATPase assay at pCa25). Particulars: concentration at which ATPase activity was 1.4-fold higher than the bottom of the dose curve, mean of a minimum of two independent tests. It counts as biochemical. The method, then:
In Vitro Model of Dose-Dependent Myofibril ATPase Modulation
Dose responses were measured using a calcium-buffered, pyruvate kinase and lactate dehydrogenase-coupled ATPase assay containing the following reagents (concentrations expressed are final assay concentrations): Potassium PIPES (12 mM), MgCl2 (2 mM), ATP (1 mM), DTT (1 mM), BSA (0.1 mg/ml), NADH (0.5 mM), PEP (1.5 mM), pyruvate kinase (4 U/ml), lactate dehydrogenase (8 U/ml), and antifoam (90 ppm). The pH was adjusted to 6.80 at 22° C. by addition of potassium hydroxide. Calcium levels were controlled by a buffering system containing 0.6 mM EGTA and varying concentrations of calcium, to achieve a free calcium concentration of 1×10^−4 M to 1×10^−8 M.
Bovine cardiac myofibrils were obtained by homogenizing the appropriate tissue in the presence of detergent. Such treatment removes membranes and majority of soluble cytoplasmic proteins but leaves intact cardiac sarcomeric acto-myosin apparatus. Concentrations of myofibrils were adjusted to achieve the necessary rate of ATP hydrolysis (typically 0.25-1.0 mg/ml).
Chemical entity dose responses were measured at the calcium concentration corresponding to 25% of maximal ATPase activity (pCa25), so a preliminary experiment was performed to test the response of the ATPase activity to free calcium concentrations in the range of 1×10^−4 M to 1×10^−8 M. Subsequently, the assay mixture was adjusted to the pCa25. Assays were performed by first preparing a dilution series of test chemical entity, each with an assay mixture containing potassium Pipes, MgCl2, BSA, DTT, pyruvate kinase, lactate dehydrogenase, myofibrils, antifoam, EGTA, CaCl2), and water. The assay was started by adding an equal volume of solution containing potassium Pipes, MgCl2, BSA, DTT, ATP, NADH, PEP, antifoam, and water. ATP hydrolysis was monitored by absorbance at 340 nm. The resulting dose response curve was fit by the 4 parameter equation y=Bottom+((Top−Bottom)/(1+((EC50/X)^Hill))). […] AC1.4 values reported in the table below are mean values based on a minimum of two independent tests.

Consider `CNc1ccc(S(=O)(=O)Nc2ccc(N3C[C@H](C)C[C@@H](C)C3)nc2)cc1C#N` (racemic) [Compound 1, 3-Cyano-N-(6-(trans-3,5-dimethylpiperidin-1-yl)pyridin-3-yl)-4-(methylamino) benzenesulfonamide], for which the AC1.4 is 14.3998 µM. The result for `C[C@@H]1C[C@@H](C)CN(c2ccc(NS(=O)(=O)c3ccc(N(C)C)c(C#N)c3)cn2)C1` (racemic) [Compound 2, 3-Cyano-4-(dimethylamino)-N-(6-(trans-3,5-dimethylpiperidin-l-yl)pyridin-3-yl)benzenesulfonamide] reads 12.21 µM; that for `Cc1nc2cc(C)c(S(=O)(=O)Nc3ccc(N4C[C@@H](C)C[C@H](C)C4)nc3)cc2c(=O)[nH]1` (racemic) [Compound 9, N-(6-((trans)-3,5-dimethylpiperidin-1-yl)pyridin-3-yl)-2,7-dimethyl-4-oxo-3,4-dihydroquinazoline-6-sulfonamide], 9.2363 µM. Regarding `Cc1[nH]c(S(=O)(=O)N[C@@H]2Cc3cc(Cl)c(Cl)cc3[C@H]2O)cc1C(=O)N1CC(C)(C#N)C1` (racemic) [Compound 99], the AC1.4 came to 0.2635 µM.

Take `CNc1ccc(S(=O)(=O)Nc2ccc(N3C[C@H](C)C[C@@H](C)C3)nc2)cc1C(N)=O` (relative stereo) [Compound 3, 5-(N-(6-(trans-3,5-dimethylpiperidin-1-yl)pyridin-3-yl)sulfamoyl)-2-(methylamino)benzamide]: the AC1.4 is 11.94 µM. `CNc1cc2c(cc1S(=O)(=O)N[C@H]1CC[C@@H](Nc3ccccc3)C1)c(=O)[nH]c(=O)n2C` (relative stereo) [Compound 19, 1-Methyl-7-(methylamino)-2,4-dioxo-N-((cis)-3-(phenylamino)cyclopentyl)-1,2,3,4-tetrahydroquinazoline-6-sulfonamide]: the AC1.4 came to 0.6379 µM. Turning to `CNc1cc2nc(C)[nH]c(=O)c2cc1S(=O)(=O)N[C@@H]1CCc2c([nH]c3ccccc23)C1` (single isomer, unassigned) [Compound 33], the AC1.4 was 0.0762 µM. Take `Cc1[nH]c(S(=O)(=O)N[C@]2(Cc3ccc(Cl)cc3)CCOC2)cc1C(=O)N1CC(C)(C#N)C1` (single isomer, unassigned) [Compound 63]: the AC1.4 is 0.081 µM. The result for `Cc1[nH]c(S(=O)(=O)N[C@]2(Cc3ccc(Cl)cc3)CCOC2)cc1C(=O)NCC(F)F` (single isomer, unassigned) [Compound 65] reads 3.2638 µM; that for `Cc1[nH]c(S(=O)(=O)N[C@@H]2Cc3ccc(C(F)(F)F)cc3C2)cc1C(=O)N1CC(C)(C#N)C1` (single isomer, unassigned) [Compound 76], 0.1121 µM; that for `Cc1[nH]c(S(=O)(=O)N[C@@H]2Cc3cc(F)c(Cl)cc3C2)cc1C(=O)N1CC(C)(C#N)C1` (single isomer, unassigned) [Compound 83], 0.06985 µM.

For `Cc1[nH]c(S(=O)(=O)N[C@H]2Cc3cc(F)c(Cl)cc3C2)cc1C(=O)N1CC(C)(C#N)C1` (single isomer, unassigned) [Compound 84], the AC1.4 stood at 0.303 µM. For `Cc1[nH]c(S(=O)(=O)N[C@H]2Cc3cc(Cl)c(Cl)cc3[C@@]2(C)O)cc1C(=O)N1CC(C)(C#N)C1` (single isomer, unassigned) [Compound 92] the value was 0.6294 µM; for `Cc1[nH]c(S(=O)(=O)N[C@H]2COc3cc(Cl)ccc3C2)cc1C(=O)N1CC(C)(C#N)C1` (stereo in doubt) [Compound 16, N-(7-chlorochroman-3-yl)-4-(3-cyano-3-methylazetidine-1-carbonyl)-5-methyl-1H-pyrrole-2-sulfonamide], 8.4932 µM.

As to `CNc1cc2nc(C)[nH]c(=O)c2cc1S(=O)(=O)Nc1ccc(-c2ccccc2)cc1` [Compound 4, N-([1,1′-biphenyl]-4-yl)-2-methyl-7-(methylamino)-4-oxo-3,4-dihydroquinazoline-6-sulfonamide], the AC1.4 was determined as 0.1832 µM. The result for `Cc1nc2ccc(S(=O)(=O)Nc3ccc(N4C[C@H](C)C[C@@H](C)C4)nc3)cc2c(=O)[nH]1` [Compound 5, N-(6-((3R,5R)-3,5-dimethylpiperidin-1-yl)pyridin-3-yl)-2-methyl-4-oxo-3,4-dihydroquinazoline-6-sulfonamide] reads 4.4808 µM. On to `Cc1nc2cc(OCCN3CCOCC3)c(S(=O)(=O)Nc3ccc(N4C[C@H](C)C[C@@H](C)C4)nc3)cc2c(=O)[nH]1` [Compound 6, N-(6-((3R,5R)-3,5-dimethylpiperidin-1-yl)pyridin-3-yl)-2-methyl-7-(2-morpholinoethoxy)-4-oxo-3,4-dihydroquinazoline-6-sulfonamide], for which the AC1.4 is 0.7385 µM. The result for `COc1cc2nc(C)[nH]c(=O)c2cc1S(=O)(=O)Nc1ccc(N2C[C@H](C)C[C@@H](C)C2)nc1` [Compound 7, N-(6-((3R,5R)-3,5-dimethylpiperidin-1-yl)pyridin-3-yl)-7-methoxy-2-methyl-4-oxo-3,4-dihydroquinazoline-6-sulfonamide] reads 1.3592 µM. For `CNc1cc2nc(C)[nH]c(=O)c2cc1S(=O)(=O)Nc1ccc(N2C[C@H](C)C[C@@H](C)C2)nc1` [Compound 8, N-(6-((3R,5R)-3,5-dimethylpiperidin-1-yl)pyridin-3-yl)-2-methyl-7-(methylamino)-4-oxo-3,4-dihydroquinazoline-6-sulfonamide] the value was 0.6695 µM; for `CNc1cc2c(cc1S(=O)(=O)NC1CCN(c3ccccc3)CC1)c(=O)[nH]c(=O)n2C` [Compound 10, 1-Methyl-7-(methylamino)-2,4-dioxo-N-(1-phenylpiperidin-4-yl)-1,2,3,4-tetrahydroquinazoline-6-sulfonamide], 2.8354 µM; for `CNc1cc2nc(C)[nH]c(=O)c2cc1S(=O)(=O)NC1CCN(c2cccc(F)c2)CC1` [Compound 11, N-(1-(3-fluorophenyl)piperidin-4-yl)-2-methyl-7-(methylamino)-4-oxo-3,4-dihydroquinazoline-6-sulfonamide], 5.252 µM. For `CNc1cc2c(cc1S(=O)(=O)N[C@H]1CC[C@H](c3ccccc3)CC1)c(=O)[nH]c(=O)n2C` [Compound 12] the value was 1.6528 µM; for `CNc1cc2c(cc1S(=O)(=O)NCCCNc1ccccc1)c(=O)[nH]c(=O)n2C` [Compound 13, 1-Methyl-7-(methylamino)-2,4-dioxo-N-(3-(phenylamino)propyl)-1,2,3,4-tetrahydroquinazoline-6-sulfonamide], 9.783 µM. For `CNc1cc2c(cc1S(=O)(=O)N[C@H]1C[C@@H](Nc3cccc(F)c3)C1)c(=O)[nH]c(=O)n2C` [Compound 14, N-((cis)-3-((3-fluorophenyl)amino)cyclobutyl)-1-methyl-7-(methylamino)-2,4-dioxo-1,2,3,4-tetrahydroquinazoline-6-sulfonamide], the AC1.4 stood at 0.2006 µM.

For the compound `CNc1cc2nc(C)[nH]c(=O)c2cc1S(=O)(=O)N[C@H]1C[C@@H](Nc2cccc(F)c2)C1` [Compound 15, N-((cis)-3-((3-fluorophenyl)amino)cyclobutyl)-2-methyl-7-(methylamino)-4-oxo-3,4-dihydroquinazoline-6-sulfonamide], the AC1.4 amounted to 1.019 µM.

As to `CNc1cc2c(cc1S(=O)(=O)N[C@H]1C[C@@H](Nc3ccccc3)C1)c(=O)[nH]c(=O)n2C` [Compound 17], the AC1.4 worked out at 0.6931 µM. Take `CNc1cc2c(cc1S(=O)(=O)N[C@H]1C[C@@H](Nc3ccccc3F)C1)c(=O)[nH]c(=O)n2C` [Compound 18, N-((cis)-3-((2-fluorophenyl)amino)cyclobutyl)-1-methyl-7-(methylamino)-2,4-dioxo-1,2,3,4-tetrahydroquinazoline-6-sulfonamide]: the AC1.4 is 0.8832 µM. The result for `CNc1cc2c(cc1S(=O)(=O)NC1CC(c3ccccc3)C1)c(=O)[nH]c(=O)n2C` (stereo not drawn) [Compound 20, 1-Methyl-7-(methylamino)-2,4-dioxo-N-(3-phenylcyclobutyl)-1,2,3,4-tetrahydroquinazoline-6-sulfonamide] reads 3.9537 µM; that for `CNc1cc2c(cc1S(=O)(=O)NCCc1cc3ccccc3[nH]1)c(=O)[nH]c(=O)n2C` [Compound 21], 4.8236 µM; that for `CNc1cc2c(cc1S(=O)(=O)N[C@H]1[C@@H]3CN(c4cccc(F)c4)C[C@@H]31)c(=O)[nH]c(=O)n2C` [Compound 22, N-((1R,5S,6s)-3-(3-Fluorophenyl)-3-azabicyclo[3.1.0]hexan-6-yl)-1-methyl-7-(methylamino)-2,4-dioxo-1,2,3,4-tetrahydroquinazoline-6-sulfonamide], 0.4479 µM.

Values taken from patent publication US20220332708A1 (Cytokinetics, Inc., priority 2021, published 2022).
